Test results published in patent US20250214978A1, “AT2R AGONIST” (WUHAN HUMANWELL INNOVATIVE DRUG RESEARCH AND DEVELOPMENT …, priority 2022, published 2025).

Molecular target: AT2R (Homo sapiens (Human), UniProt P50052)
Experiment: Binding assay of compounds to AT2R (Tag-lite HTRF ligand binding kit)
Details: 1 hour incubation at room temperature
Method: The assay was performed in accordance with the instruction manual of Angiotensin AT2 Receptor Ligand Binding Assay Kit (#C1TT1AT2, Cisbio). First, a compound stock solution (10 mM) was diluted in a gradient at a 5× dilution ratio (including 10 concentrations, each with two replicates). 160 nL of compounds at different concentrations was added to a 384-well plate. 40 μL of 1×TLB was added to each well, and the mixture was shaken at room temperature for 15 minutes. 15 mL centrifuge tube added with 5 mL of 1×TLB was prepared in advance. The frozen labeled cells were thawed in a water bath at 37° C. (for 1 to 2 minutes), and the thawed cells were quickly transferred to the above 15 mL centrifuge tube. The mixture was mixed well and centrifuged at 1,000 g at room temperature for 5 minutes. The supernatant was removed, and the cells were resuspended by adding 2.7 mL 1×TLB. A new 384-well plate was taken, and 10 μL of mixed cells were added into the corresponding wells according to the assay design. 5 μL of 4× compound solution and 5 μL of 4× Tag-lite red fluorescent labeled ligand were added to each well. After incubation at room temperature for 1 hour, data were read using EnVision with an HTRF mode. The excitation light intensities at 665 nM and 615 nM in each well were read respectively, and the ratio was calculated (Ratio=A665nMIB615 nM). The IC50 value was calculated by means of GraphPad Prism8 software, where X represents logarithmic value of compound concentration; and Y represents ratio of A665 nM/B615 nM.

Sequence of AT2R (P50052 whole entry): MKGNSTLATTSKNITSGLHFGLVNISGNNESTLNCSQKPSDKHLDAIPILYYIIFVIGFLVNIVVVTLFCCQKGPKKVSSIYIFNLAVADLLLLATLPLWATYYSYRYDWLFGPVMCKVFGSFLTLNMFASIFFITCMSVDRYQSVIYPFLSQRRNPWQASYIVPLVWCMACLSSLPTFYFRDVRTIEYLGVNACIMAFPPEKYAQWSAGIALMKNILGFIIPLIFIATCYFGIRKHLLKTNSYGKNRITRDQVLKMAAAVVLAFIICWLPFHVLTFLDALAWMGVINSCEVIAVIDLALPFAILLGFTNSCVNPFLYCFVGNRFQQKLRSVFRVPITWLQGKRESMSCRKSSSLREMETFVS

Row | SMILES | IC50 [nM]
1 | CCOC(=O)NS(=O)(=O)c1sc(CC(C)C)c(C)c1-c1ccc(Cn2ccnc2C)cc1 [Compound I-28, Ethyl ((5-isobutyl-4-methyl-3-(4-((2-methyl-1H-imidazol-1-yl)methyl)phenyl)thiophen-2-yl)sulfonyl)carbamate] | 4.06
2 | CCCCOC(=O)NS(=O)(=O)c1sc(CC(C)C)cc1-c1ccc(Cn2ccnc2)nc1 [Compound I-6, Butyl ((3-(6-((1H-imidazol-1-yl)methyl)pyridin-3-yl)-5-isobutylthiophen-2-yl)sulfonyl)carbamate] | 11.4
3 | CCCCOC(=O)NS(=O)(=O)c1sc(CC(C)C)c(C)c1-c1ccc(Cn2ccnc2)cc1 [Compound I-8, Butyl ((3-(4-((1H-imidazol-1-yl)methyl)phenyl)-5-isobutyl-4-methylthiophen-2-yl)sulfonyl)carbamate] | 4.4
4 | COC(=O)NS(=O)(=O)c1sc(CC(C)C)c(C)c1-c1ccc(Cn2ccnc2C(C)(C)C)cc1 [Compound I-26, Methyl ((3-(4-((2-(tert-butyl)-1H-imidazol-1-yl)methyl)phenyl)-5-isobutyl-4-methylthiophen-2-yl)sulfonyl)carbamate] | 3.76
5 | CCCCOC(=O)NS(=O)(=O)c1sc(CC(C)C)cc1-c1ccc(Cn2ccnc2)c(C)c1 [Compound I-2, Butyl ((3-(4-((1H-imidazol-1-yl)methyl)-3-methylphenyl)-5-isobutylthiophen-2-yl)sulfonyl)carbamate] | 3.32
6 | CCc1nccn1Cc1ccc(-c2c(S(=O)(=O)NC(=O)OC)sc(CC(C)C)c2C)cc1 [Compound I-32, Methyl ((3-(4-((2-ethyl-1H-imidazol-1-yl)methyl)phenyl)-5-isobutyl-4-methylthiophen-2-yl)sulfonyl)carbamate] | 1.32
7 | CCCCOC(=O)NS(=O)(=O)c1sc(CC(C)C)cc1-c1ccc(Cn2ccnc2)c(C#N)c1 [Compound I-4, Butyl ((3-(4-((1H-imidazol-1-yl)methyl)-3-cyanophenyl)-5-isobutylthiophen-2-yl)sulfonyl)carbamate] | 3.54

Other lines, results leading:

Row | IC50 [nM] | SMILES
8 | 3.35 | COC(=O)NS(=O)(=O)c1sc(CC(C)C)cc1-c1ccc(Cn2ccnc2C(C)C)c(C#N)c1 [Compound I-27, Methyl ((3-(3-cyano-4-((2-isopropyl-1H-imidazol-1-yl)methyl)phenyl)-5-isobutylthiophen-2-yl)sulfonyl)carbamate]
9 | 1.63 | Cc1nccn1Cc1ccc(-c2cc(CC(C)C)sc2S(=O)(=O)NC(=O)NCCC(F)(F)F)c(C#N)c1 [Compound I-18, 3-(2-cyano-4-((2-methyl-1H-imidazol-1-yl)methyl)phenyl)-5-isobutyl-N-((3,3,3-trifluoropropyl)carbamoyl)thiophene-2-sulfonamide]
10 | 7.28 | CCNC(=O)NS(=O)(=O)c1sc(CC(C)C)cc1-c1ccc(Cn2ccnc2C)c(C)c1 [Compound I-22, N-(ethylcarbamoyl)-5-isobutyl-3-(3-methyl-4-((2-methyl-1H-imidazol-1-yl)methyl)phenyl)thiophene-2-sulfonamide]
11 | 2.15 | COC(=O)NS(=O)(=O)c1sc(CC(C)C)cc1-c1ccc(Cn2ccnc2C)cc1C#N [Compound I-10, Methyl (3-(2-cyano-4-((2-methyl-1H-imidazol-1-yl)methyl)phenyl)-5-isobutylthiophen-2-yl)sulfonylcarbamate]
12 | 3.4 | COC(=O)NS(=O)(=O)c1sc(CC(C)C)c(C)c1-c1ccc(Cn2ccnc2C)c(C)c1 [Compound I-35, Methyl ((5-isobutyl-4-methyl-3-(3-methyl-4-((2-methyl-1H-imidazol-1-yl)methyl)phenyl)thiophen-2-yl)sulfonyl)carbamate]
13 | 11.3 | Cc1cc(-c2cc(CC(C)C)sc2S(=O)(=O)NC(=O)NCCO)ccc1Cn1ccnc1C [Compound I-23, N-((2-hydroxyethyl)carbamoyl)-5-isobutyl-3-(3-methyl-4-((2-methyl-1H-imidazol-1-yl)methyl)phenyl)thiophene-2-sulfonamide]
